Source: patent US5264443A, “3-aryl oxazolidinone compounds and therapeutic use thereof” (Delalande S.A., priority 1991, dated 1993)

System: 5-hydroxy tryptophan (5-HTP)
Experiment: potentialisation of 5-HTP in the rat (anti-depressive activity)
Format: in vivo
Conditions: 1 h, oral administration, 5-HTP intraperitoneally one hour after the first treatment, read-out: ED50 (dose producing generalised tremors or stereotypy in 50% of the animals)
Description: The anti-depressive activity was shown by the test of potentialisation of 5-HTP in the rat by the method described by M. JALFRE, B. BUCHER, A. COSTON, G. MOCQUET and R. D. PORSOLT: Arch. Int. Pharmacodyn., (1982), 259, 194-221. A determination on the rat was made of that dose of the product which, orally administered, produces generalised tremors or stereotypy (drumming, head movements) in 50% of the animals (ED50) after intraperitoneal administration of 5-hydroxy tryptophan (5-HTP) one hour after the first treatment. The results obtained in the preceding test, using some compounds according to the invention, are given by way of example in the following table: […]

Compound	ED50 [mg/kg]
COC[C@H]1CN(c2ccc(OCC[C@@H](OCc3ccncc3)C(F)(F)F)cc2)C(=O)O1 [MD 290057, 3-[4-[4,4,4-trifluoro 3-(4-pyridylmethoxy)(R)butoxy]phenyl]5-methoxymethyl(R)2-oxazolidinone]	0.53
COC[C@H]1CN(c2ccc(OCC[C@@H](OCc3ccc[n+]([O-])c3)C(F)(F)F)cc2)C(=O)O1 [MD 290065, 3-[4-[4,4,4-trifluoro3-(3-N-oxide-pyridylmethoxy)(R)butoxy]phenyl]5-methoxymethyl(R) 2-oxazolidinone]	0.62
COC[C@H]1CN(c2ccc(OCC[C@@H](OCc3cccnc3)C(F)(F)F)cc2)C(=O)O1 [MD 360411 (oxalate), 3-[4-[4,4,4-trifluoro 3-(3-pyridylmethoxy)(R)butoxy]phenyl]5-methoxymethyl(R)2-oxazolidinone]	0.4
